# According to ChEMBL document CHEMBL1201862, “PubChem BioAssay data set” (2004):
# The source made the active and inactive calls.
# Assays:
# [1] = Counterscreen for AddAB inhibitors: absorbance-based bacterial cell-based high throughput dose response assay for inhibitors of bacterial viability. [Related pubchem assays (depositor defined):AID435030, AID449728, AID449731, AID488942, AID488955, AID488956]; assay type: functional
# Exodeoxyribonuclease V = Exodeoxyribonuclease V (Escherichia coli (strain K12), UniProt P04993+P07648+P08394); assay: RecBCD inhibition via phage-restricted bacterial growth – absorbance, V66 E. coli, mutant T4 phage, counter-screen for AddAB inhibitor project, dose response (AID 492957); assay type: functional, cell-based, Escherichia coli str. K-12 substr. MG1655
# [2] = molecular target: T1, Mannose-6-phosphate isomerase (Homo sapiens, UniProt P34949); assay: phosphomannose isomerase inhibition – biochemical, fluorescence intensity, confirmation (AID 1535)
# T1 sequence (P34949 whole entry): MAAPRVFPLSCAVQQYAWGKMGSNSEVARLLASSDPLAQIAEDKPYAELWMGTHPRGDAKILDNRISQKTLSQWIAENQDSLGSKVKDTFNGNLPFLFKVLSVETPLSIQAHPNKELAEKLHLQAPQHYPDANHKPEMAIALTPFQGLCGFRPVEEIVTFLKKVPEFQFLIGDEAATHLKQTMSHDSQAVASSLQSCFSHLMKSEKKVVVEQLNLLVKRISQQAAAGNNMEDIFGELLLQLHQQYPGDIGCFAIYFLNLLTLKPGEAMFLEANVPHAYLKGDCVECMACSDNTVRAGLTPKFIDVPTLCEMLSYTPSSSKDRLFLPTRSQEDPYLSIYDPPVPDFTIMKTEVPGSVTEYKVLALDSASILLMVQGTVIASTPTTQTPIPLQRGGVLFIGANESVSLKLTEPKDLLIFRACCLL
# Phosphomannomutase 2 = Phosphomannomutase 2 (Homo sapiens, UniProt O15305); assay: Counter screen SAR assay for PMM2 inhibitors via a fluorescence intensity assay. [Related pubchem assays (depositor defined):AID1545, AID1574]
# Sequence of Phosphomannomutase 2 (O15305 whole entry): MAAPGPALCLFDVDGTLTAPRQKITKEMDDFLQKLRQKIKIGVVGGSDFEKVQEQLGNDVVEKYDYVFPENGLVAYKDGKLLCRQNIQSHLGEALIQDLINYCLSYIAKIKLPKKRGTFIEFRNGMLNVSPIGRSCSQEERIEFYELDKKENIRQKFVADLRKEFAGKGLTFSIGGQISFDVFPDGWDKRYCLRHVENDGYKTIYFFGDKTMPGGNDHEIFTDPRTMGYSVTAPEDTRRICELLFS
# Cytochrome P450 1A2 = molecular target: T2, Cytochrome P450 1A2 (Homo sapiens, UniProt P05177);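 note: PubChem cytochrome P450 panel assay, CYP1A2 panel member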
# T2 sequence (P05177 whole entry): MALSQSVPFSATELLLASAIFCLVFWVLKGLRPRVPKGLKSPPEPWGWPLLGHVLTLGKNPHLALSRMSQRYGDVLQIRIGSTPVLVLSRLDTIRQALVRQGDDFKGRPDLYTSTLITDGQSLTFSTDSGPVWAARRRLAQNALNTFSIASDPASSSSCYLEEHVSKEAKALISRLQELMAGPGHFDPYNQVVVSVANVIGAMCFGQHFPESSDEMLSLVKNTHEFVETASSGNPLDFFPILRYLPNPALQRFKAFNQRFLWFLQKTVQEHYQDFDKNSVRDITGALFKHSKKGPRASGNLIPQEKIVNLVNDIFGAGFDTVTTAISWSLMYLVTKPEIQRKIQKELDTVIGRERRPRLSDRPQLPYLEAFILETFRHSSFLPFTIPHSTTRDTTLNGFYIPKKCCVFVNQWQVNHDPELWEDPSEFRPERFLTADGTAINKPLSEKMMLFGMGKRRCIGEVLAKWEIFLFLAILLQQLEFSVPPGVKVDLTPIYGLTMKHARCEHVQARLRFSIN
# Large T antigen = Large T antigen (Simian virus 40, UniProt P03070); assay type: functional, Betapolyomavirus macacae;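 note: Confirmatory-stage PubChem screen for compounds that inhibit SV40 T antigen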
# [3] = molecular target: Lysine-specific demethylase 4C (Homo sapiens, UniProt Q9H3R0); assay: inhibition of JMJD2C H3K9me3 demethylation – biochemical, DELFIA europium, cherry-picked samples, dose response (AID 488835); assay type: functional
# Sequence of Lysine-specific demethylase 4C (Q9H3R0 whole entry): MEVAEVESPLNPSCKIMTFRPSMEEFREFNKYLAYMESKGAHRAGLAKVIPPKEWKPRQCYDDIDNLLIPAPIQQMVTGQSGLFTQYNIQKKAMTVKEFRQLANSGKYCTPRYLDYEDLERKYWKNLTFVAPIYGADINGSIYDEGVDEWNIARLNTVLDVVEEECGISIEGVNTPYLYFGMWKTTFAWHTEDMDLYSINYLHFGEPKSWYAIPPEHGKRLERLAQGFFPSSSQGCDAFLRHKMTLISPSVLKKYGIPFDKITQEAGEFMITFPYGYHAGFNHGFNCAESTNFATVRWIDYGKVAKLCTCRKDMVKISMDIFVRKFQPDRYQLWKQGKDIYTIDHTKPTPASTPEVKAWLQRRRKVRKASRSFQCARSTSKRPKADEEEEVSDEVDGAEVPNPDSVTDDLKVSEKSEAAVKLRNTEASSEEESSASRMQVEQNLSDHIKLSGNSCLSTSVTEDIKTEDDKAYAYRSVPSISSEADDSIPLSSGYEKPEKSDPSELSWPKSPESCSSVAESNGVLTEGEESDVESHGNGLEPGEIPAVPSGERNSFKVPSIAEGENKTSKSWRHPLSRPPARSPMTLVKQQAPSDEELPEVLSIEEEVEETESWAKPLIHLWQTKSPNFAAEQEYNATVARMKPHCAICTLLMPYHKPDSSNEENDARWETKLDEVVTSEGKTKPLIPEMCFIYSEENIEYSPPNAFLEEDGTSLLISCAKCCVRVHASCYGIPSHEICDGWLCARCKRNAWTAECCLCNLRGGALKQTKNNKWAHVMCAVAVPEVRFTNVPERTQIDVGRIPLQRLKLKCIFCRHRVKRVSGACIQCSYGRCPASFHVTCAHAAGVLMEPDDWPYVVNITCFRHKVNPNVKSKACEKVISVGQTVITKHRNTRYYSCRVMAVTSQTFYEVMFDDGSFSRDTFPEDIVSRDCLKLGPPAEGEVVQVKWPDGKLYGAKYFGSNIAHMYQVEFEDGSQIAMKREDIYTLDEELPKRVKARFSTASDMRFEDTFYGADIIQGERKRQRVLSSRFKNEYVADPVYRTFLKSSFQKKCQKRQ
# [4] = molecular target: T3, Polyadenylate-binding protein 1 (Homo sapiens, UniProt P11940); assay: MLLE binding blockers, Cy5 peptide tracer – biochemical, fluorescence polarization, Cy5-PAM2 peptide, secondary, miRNA deadenylation inhibitor project, dose response (AID 602260); assay type: functional; conditions: read-out: IC50_Mean
# T3 sequence (P11940 whole entry): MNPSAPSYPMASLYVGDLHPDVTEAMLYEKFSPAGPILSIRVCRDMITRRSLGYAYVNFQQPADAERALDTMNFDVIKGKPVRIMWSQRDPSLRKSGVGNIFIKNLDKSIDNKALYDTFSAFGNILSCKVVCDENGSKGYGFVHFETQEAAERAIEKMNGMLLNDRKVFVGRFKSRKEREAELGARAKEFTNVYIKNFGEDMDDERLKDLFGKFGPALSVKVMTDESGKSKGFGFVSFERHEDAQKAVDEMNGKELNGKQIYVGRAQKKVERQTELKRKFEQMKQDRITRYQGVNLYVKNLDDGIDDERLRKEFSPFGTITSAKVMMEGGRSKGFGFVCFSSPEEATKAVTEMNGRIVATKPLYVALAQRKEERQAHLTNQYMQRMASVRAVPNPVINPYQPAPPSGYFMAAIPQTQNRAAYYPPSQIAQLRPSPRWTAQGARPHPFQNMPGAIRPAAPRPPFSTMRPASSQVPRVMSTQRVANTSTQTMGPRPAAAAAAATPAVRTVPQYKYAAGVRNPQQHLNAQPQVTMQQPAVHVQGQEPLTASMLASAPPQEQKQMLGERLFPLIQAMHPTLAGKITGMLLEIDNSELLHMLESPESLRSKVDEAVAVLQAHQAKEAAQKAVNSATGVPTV
# Genome polyprotein = Genome polyprotein (dengue virus type 2, UniProt P29990); assay: flavivirus cap methylation enzyme inhibition – biochemical, confirmation dose response, primary screen (AID 588689); assay type: functional
# [5] = molecular target: T3, Polyadenylate-binding protein 1; assay: MLLE domain peptide-binding blockers, IC50 – biochemical, fluorescence polarization, FITC-PAM2 peptide, dose response (AID 602259); assay type: functional; conditions: read-out: IC50_Mean
# [6] = molecular target: T4, Apoptotic protease-activating factor 1 (Homo sapiens, UniProt O14727); assay: activation of Apaf-1 mediated apoptosis – fluorescent, uHTS hits, dose response (AID 588554); assay type: functional
# T4 sequence (O14727 whole entry): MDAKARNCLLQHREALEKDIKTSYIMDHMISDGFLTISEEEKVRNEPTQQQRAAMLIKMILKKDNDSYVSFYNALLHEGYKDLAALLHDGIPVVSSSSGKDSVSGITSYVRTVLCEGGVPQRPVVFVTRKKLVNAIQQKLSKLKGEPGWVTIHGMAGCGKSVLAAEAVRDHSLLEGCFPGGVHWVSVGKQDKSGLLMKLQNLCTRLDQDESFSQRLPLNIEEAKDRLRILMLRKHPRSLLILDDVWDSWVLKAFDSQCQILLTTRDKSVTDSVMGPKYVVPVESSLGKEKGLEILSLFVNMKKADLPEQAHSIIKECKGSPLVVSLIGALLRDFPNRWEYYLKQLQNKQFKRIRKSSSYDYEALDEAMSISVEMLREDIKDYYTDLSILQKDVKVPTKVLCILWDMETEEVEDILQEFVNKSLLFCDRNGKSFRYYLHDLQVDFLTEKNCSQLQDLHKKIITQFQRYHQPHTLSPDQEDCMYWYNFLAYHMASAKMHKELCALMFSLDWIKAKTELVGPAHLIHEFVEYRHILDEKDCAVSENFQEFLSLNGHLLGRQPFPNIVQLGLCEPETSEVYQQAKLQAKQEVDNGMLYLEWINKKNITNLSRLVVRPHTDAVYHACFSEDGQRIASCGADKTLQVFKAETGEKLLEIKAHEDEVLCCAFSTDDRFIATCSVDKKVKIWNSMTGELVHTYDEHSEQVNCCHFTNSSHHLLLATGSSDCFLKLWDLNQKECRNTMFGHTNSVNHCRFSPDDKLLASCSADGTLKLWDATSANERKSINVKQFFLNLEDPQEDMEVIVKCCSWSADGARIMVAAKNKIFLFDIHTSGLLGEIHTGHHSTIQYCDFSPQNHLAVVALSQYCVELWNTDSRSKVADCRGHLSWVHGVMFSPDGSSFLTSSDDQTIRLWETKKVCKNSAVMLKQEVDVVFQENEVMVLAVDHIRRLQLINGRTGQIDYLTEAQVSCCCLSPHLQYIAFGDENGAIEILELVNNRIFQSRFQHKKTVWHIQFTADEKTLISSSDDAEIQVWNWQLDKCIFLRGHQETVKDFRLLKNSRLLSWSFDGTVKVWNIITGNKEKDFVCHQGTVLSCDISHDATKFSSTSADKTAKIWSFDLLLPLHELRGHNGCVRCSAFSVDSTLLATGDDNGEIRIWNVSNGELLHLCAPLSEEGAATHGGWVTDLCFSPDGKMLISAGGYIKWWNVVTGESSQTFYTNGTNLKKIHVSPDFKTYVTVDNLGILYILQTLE
# Cytochrome P450 2D6 = Cytochrome P450 2D6 (Homo sapiens, UniProt P10635);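 note: CYP2D6 member of a cytochrome P450 panel assay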
# Sequence of Cytochrome P450 2D6 (P10635 whole entry): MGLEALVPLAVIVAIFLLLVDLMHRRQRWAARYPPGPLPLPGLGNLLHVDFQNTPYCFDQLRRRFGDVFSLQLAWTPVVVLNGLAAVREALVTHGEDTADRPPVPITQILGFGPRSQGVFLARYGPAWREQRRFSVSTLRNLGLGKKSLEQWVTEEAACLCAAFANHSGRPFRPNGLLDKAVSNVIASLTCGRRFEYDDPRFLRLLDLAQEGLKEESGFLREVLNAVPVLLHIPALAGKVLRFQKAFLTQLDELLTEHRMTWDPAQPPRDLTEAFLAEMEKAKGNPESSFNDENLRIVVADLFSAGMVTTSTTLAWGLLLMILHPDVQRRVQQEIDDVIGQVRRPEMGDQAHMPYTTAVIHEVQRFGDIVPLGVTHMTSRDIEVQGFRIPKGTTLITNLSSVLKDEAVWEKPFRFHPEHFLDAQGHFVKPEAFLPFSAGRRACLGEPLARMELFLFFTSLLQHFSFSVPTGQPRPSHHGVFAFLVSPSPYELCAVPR
# Cytochrome P450 2C19 = Cytochrome P450 2C19 (Homo sapiens, UniProt P33261); assay: Cytochrome panel assay with activity outcomes. Panel member name: p450-cyp2c19 Compounds with AC50 equal or less than 10 uM are considered active; assay type: functional
# Sequence of Cytochrome P450 2C19 (P33261 whole entry): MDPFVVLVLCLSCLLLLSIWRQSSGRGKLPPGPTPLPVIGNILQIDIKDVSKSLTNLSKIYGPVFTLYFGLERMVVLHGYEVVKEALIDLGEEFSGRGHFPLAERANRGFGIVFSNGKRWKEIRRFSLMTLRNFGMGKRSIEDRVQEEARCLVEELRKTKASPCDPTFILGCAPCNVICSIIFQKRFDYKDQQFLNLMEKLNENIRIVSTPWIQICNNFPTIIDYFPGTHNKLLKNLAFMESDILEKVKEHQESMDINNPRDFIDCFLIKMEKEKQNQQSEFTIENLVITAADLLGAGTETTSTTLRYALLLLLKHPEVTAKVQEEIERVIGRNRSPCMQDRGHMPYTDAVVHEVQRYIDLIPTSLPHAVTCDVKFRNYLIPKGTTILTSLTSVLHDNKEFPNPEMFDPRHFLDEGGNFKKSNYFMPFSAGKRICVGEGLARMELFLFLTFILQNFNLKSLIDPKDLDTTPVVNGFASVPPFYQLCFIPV
# [7] = Luminescence Cell-Based Dose Retest to Confirm Inhibitors of Cancer Stem Cells. [Related pubchem assays (depositor defined):AID2717, AID2721]; assay type: functional; conditions: Homo sapiens
# [8] = viability loss of HMLE_sh_eGFP cells – cell-based, luminescence, counter-screen for HMLE_sh_ECad selective toxicity project, dose response (AID 463074); assay type: functional, Homo sapiens;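 note: HMLE human mammary epithelial cells expressing control shRNA against eGFP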
# [9] = molecular target: T5, Dual specificity protein phosphatase 3 (Homo sapiens, UniProt P51452); assay: VHR1 phosphatase inhibitors, primary screen, biochemical, absorbance, uHTS (AID 1654)
# T5 sequence (P51452 whole entry, the tested form may be a part): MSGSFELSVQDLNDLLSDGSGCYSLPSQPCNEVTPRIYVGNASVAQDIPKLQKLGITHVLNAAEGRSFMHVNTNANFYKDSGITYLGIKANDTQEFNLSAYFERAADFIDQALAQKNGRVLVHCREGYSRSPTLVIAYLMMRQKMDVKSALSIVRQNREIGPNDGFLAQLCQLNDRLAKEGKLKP
# [10] = molecular target: T6, Carboxy-terminal domain RNA polymerase II polypeptide A small phosphatase 1 (Homo sapiens, UniProt Q9GZU7); assay: CTDSP1 inhibitors, concentration-response, biochemical, absorbance readout, ultra-high-throughput screen actives (AID 540297); assay type: functional
# T6 sequence (Q9GZU7 whole entry): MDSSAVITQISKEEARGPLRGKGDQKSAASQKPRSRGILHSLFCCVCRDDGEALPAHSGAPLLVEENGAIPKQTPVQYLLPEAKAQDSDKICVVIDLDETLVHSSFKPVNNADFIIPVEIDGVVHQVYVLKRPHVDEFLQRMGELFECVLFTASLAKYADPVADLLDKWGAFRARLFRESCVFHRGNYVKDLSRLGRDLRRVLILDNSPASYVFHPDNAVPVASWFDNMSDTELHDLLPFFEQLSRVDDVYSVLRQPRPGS
# [11] = molecular target: Low molecular weight phosphotyrosine protein phosphatase (Homo sapiens, UniProt P24666); assay type: functional; conditions: read-out: IC50_Mean
# Sequence of Low molecular weight phosphotyrosine protein phosphatase (P24666 whole entry): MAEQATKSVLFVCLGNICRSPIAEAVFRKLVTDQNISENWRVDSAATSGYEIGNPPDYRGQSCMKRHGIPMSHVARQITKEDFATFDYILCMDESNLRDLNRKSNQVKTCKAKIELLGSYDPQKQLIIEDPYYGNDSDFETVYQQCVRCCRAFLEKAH
# [12] = molecular target: T5, Dual specificity protein phosphatase 3; assay: VHR1 phosphatase inhibitors, biochemical (AID 1878)
# [13] = molecular target: T7, Dual specificity protein phosphatase 6 (Rattus norvegicus, UniProt Q64346); assay: inhibition of rat DUSP6 enzyme activity – biochemical, in vitro, primary screen (AID 425)
# T7 sequence (Q64346 whole entry): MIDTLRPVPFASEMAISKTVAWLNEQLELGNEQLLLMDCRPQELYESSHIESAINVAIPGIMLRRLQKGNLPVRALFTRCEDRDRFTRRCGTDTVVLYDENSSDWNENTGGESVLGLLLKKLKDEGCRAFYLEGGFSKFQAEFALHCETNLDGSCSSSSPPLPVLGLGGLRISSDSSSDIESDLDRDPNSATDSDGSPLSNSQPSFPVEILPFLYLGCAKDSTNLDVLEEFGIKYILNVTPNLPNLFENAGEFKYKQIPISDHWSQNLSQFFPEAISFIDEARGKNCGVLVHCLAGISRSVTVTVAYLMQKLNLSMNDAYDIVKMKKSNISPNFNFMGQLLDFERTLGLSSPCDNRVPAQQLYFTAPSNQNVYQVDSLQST
# Keap1/Nrf2 = Keap1/Nrf2 (Homo sapiens, UniProt Q14145); assay: disruptors of Keap1 binding to Nrf2 peptide – biochemical, fluorescence polarization, cherry-picked samples, dose response (AID 588683)
# [14] = molecular target: T8, Intestinal-type alkaline phosphatase (Homo sapiens, UniProt P09923); assay: inhibition of human intestinal alkaline phosphatase – biochemical, luminescent, uHTS hits, set 2, dose response (AID 488793); assay type: functional
# T8 sequence (P09923 whole entry): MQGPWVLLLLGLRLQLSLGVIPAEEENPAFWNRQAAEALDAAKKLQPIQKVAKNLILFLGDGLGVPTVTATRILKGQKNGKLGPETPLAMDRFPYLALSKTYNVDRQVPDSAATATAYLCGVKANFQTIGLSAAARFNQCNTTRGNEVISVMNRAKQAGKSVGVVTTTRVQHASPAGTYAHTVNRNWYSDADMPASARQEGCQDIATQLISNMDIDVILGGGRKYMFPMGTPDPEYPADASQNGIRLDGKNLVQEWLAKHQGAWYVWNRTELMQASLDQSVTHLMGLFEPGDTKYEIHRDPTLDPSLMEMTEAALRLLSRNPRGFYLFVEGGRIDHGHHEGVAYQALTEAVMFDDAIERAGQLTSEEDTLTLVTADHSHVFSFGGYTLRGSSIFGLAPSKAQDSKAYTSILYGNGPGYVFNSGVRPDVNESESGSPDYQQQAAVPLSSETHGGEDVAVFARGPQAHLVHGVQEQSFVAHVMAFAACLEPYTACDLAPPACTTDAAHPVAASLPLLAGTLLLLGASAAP
# [15] = molecular target: T8, Intestinal-type alkaline phosphatase; assay: Dose Response confirmation of uHTS hits from a small molecule inhibitors of human intestinal alkaline phosphatase via a luminescent assay. [Related pubchem assays (depositor defined):AID2544, AID2574]; assay type: functional
# [16] = molecular target: Intestinal-type alkaline phosphatase (Mus musculus, UniProt P24822); assay: PubChem AID 488874; assay type: functional
# Sequence of Intestinal-type alkaline phosphatase (Mus musculus, UniProt P24822) (P24822 whole entry): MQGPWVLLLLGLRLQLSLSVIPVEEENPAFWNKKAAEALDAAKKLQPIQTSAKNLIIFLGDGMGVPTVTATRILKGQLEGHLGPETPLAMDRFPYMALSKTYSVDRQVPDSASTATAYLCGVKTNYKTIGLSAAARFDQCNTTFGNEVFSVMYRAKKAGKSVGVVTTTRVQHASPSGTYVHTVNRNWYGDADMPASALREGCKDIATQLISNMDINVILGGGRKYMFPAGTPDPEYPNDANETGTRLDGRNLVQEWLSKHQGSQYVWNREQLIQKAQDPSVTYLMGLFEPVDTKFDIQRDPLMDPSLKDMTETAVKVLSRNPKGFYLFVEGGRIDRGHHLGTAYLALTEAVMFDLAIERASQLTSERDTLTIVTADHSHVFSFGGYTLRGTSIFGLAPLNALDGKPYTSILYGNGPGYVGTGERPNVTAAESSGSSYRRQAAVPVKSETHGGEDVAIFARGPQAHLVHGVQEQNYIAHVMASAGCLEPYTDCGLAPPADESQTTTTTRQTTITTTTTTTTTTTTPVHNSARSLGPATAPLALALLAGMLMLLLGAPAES
# [17] = molecular target: T9, Alkaline phosphatase, tissue-nonspecific isozyme (Homo sapiens, UniProt P05186); assay: inhibition of tissue-nonspecific alkaline phosphatase – biochemical, dose response (AID 488882); assay type: functional
# T9 sequence (P05186 whole entry): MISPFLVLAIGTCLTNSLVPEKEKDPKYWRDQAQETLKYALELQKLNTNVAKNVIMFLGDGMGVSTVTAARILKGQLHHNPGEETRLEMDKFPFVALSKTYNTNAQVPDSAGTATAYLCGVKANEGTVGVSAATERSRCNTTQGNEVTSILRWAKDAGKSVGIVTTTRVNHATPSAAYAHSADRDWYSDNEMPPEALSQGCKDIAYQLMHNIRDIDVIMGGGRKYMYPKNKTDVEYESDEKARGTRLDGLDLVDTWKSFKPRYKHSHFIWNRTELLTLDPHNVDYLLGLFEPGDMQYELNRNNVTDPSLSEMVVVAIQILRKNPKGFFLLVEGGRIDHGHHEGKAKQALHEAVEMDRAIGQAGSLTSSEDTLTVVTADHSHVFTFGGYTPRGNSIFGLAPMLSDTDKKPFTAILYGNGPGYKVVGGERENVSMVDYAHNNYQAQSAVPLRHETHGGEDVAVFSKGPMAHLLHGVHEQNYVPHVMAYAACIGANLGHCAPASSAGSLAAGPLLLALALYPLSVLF
smiles,measurement,setting,value
O=C1CCC(=O)N(O)CCCCCNC(=O)CCC(=O)N(O)CCCCNC(=O)CCC(=O)N(O)CCCCCN1 [DESMETHYLENYLNOCARDAMINE],IC50,[1],> 119 µM (inactive)
same,IC50,Exodeoxyribonuclease V,> 119 µM (inactive)
COc1ccc(C)cc1/N=c1\ssnc1Cl,IC50,[2],22.5 µM (active)
same,IC50,Phosphomannomutase 2,> 100 µM (inactive)
O=S(=O)(c1ccccc1)N1CCC[C@@]2(CCN(Cc3cc(C(F)(F)F)cc(C(F)(F)F)c3)C2)C1,AC50,Cytochrome P450 1A2,inconclusive
O=C1NC(=O)C(=Cc2csc3ccccc23)C(=O)N1,IC50,Large T antigen,59.7 µM (active)
same,AC50,[3],6.34 µM (active)
same,IC50,[4],> 66 µM (inactive)
same,IC50,Genome polyprotein,26.9 µM (active)
same,IC50,[5],> 66 µM (inactive)
CC(/C=C\c1cccnc1)=C/C(=O)O,EC50,[6],11 µM (active)
CC(CC(=O)O)(CC(=O)O)C(=O)O,AC50,Cytochrome P450 2D6,inconclusive
same,AC50,Cytochrome P450 2C19,inconclusive
O=C(Nc1ccc(OCc2ccccc2)cc1)c1cccs1,AC50,[7],1.98 µM (active)
same,AC50,[8],62.6 µM (active)
Cc1ccc(-n2c(=O)c3cc4c(=O)n(-c5ccc(C)c(C)c5)c(=O)c4c(C(=O)c4ccc(C(=O)O)cc4)c3c2=O)cc1C,IC50,[9],3.39 µM (active)
same,IC50,[10],1.12 µM (active)
same,IC50,[11],3.13 µM (active)
same,IC50,[12],5.31 µM (active)
same,IC50,[13],18.9 µM (active)
NC(=O)c1cc2ccc(O)cc2o/c1=N\Cc1ccccc1,AC50,Keap1/Nrf2,18.7 µM (active)
C/C(=N/Nc1ccccc1[N+](=O)[O-])c1ccc([N+](=O)[O-])cc1,IC50,[14],77.3 µM (active)
same,IC50,[15],69.6 µM (inactive)
same,IC50,[16],> 100 µM (inactive)
same,IC50,[17],> 100 µM (inactive)
